In US12122750B2, “AT2R antagonists and uses thereof” (Eli Lilly and Company, priority 2022, dated 2024):

Legend:
[1] = Plasma concentration of test compound in the receptor occupancy study; type: in vivo, Sprague Dawley rats; details: rat
Experimental: Twenty male Sprague Dawley rats (140-150 gms, Envigo) were maintained under controlled laboratory conditions on a 12 hr light cycle with ad lib access to food and water. On the morning of the experiment, rats were orally dosed with vehicle (1% (w/v) hydroxyethylcellulose, 0.25% (w/v) polysorbate 80, 0.05% (v/v) antifoam 1510-US in purified water) or appropriate doses of test compound (5 mL/kg, n=4 rats/group) using the same vehicle. Following a pre-determined survival time, plasma and adrenals were collected and frozen at −80° C. until analyzed. Frozen 20 μm sections of an adrenal from each animal were collected onto gelatin-coated slides and stored at −80° C. Autoradiography to detect AT2R occupancy (RO) was conducted under cold conditions using methods modified from F. M. J. Heemskerk, et al, Brain Research 677 (1995) 29-38. Total binding was defined by 0.3 nM ^125I-CGP42112 (selective AT2R agonist, Perkin Elmer, Inc) with the addition of 10 μM unlabeled AngII used to define non-specific binding. Following exposure to a phosphoimager plate (BAS TR2025, GE Healthcare), the bound radioactivity is calculated with use of MCID software (Imaging Research, Inc) and calibrated ^125I standards (American Radiolabeled Chemicals, Inc). The specific ligand binding for each animal is calculated by subtracting the non-specific binding from the total bound.

[2] = molecular target: recombinant human angiotensin-II receptor subtype 2 (hAT2R) (Homo sapiens (Human), UniProt P50052); test: Competitive radioligand binding assay (SPA), hAT2R HEK293 membranes; details: [125I]-Tyr4-Angiotensin-II, read-out: AT2R Ki
How it was run: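 SPA competition binding on membranes from HEK293 cells stably transfected with hAT2R (0.25 μg/well, with 0.1 mg/well PVT-WGA beads) in 50 mM Tris-HCl pH 7.5, 150 mM NaCl, 0.1% fatty-acid-free BSA. Ten-point four-fold dilution curves ran from 50 μM top final concentration. Bound radioactivity was counted (CPM) after 10 h at room temperature.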

Chain of recombinant human angiotensin-II receptor subtype 2 (hAT2R) (P50052 whole entry): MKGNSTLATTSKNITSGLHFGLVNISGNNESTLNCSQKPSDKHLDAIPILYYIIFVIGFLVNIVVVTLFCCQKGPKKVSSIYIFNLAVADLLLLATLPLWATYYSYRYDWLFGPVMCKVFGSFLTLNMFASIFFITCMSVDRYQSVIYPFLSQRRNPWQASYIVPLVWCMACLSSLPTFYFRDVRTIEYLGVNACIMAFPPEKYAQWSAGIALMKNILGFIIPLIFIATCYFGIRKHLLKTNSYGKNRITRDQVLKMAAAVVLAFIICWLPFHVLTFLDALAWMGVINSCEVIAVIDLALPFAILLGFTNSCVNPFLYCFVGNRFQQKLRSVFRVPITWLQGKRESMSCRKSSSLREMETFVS

| SMILES | [plasma, free, nM] ([1]; oral dose 0.3 mg/kg) | [plasma, free, nM] ([1]; oral dose 1 mg/kg) | [plasma, free, nM] ([1]; oral dose 3 mg/kg) | [plasma, free, nM] ([1]; oral dose 10 mg/kg) | Ki [2] | [plasma, free, nM] ([1]; oral dose 0.01 mg/kg) | [plasma, free, nM] ([1]; oral dose 0.03 mg/kg) | [plasma, free, nM] ([1]; oral dose 0.1 mg/kg) |
| --- | --- | --- | --- | --- | --- | --- | --- | --- |
| O=C(N1CCC(CC(=O)N(c2ccccc2)c2ccccc2)(C(=O)O)CC1)N1CCc2ccccc21 [Example 3, 1-(indoline-1-carbonyl)-4-[2-oxo-2-(N-phenylanilino)ethyl]piperidine-4-carboxylic acid] | 0.482 nM | 1.74 nM | 5.99 nM | 15.8 nM | 5.36 nM |  |  |  |
| CN(C(=O)N1CCC(CC(=O)N(c2ccccc2)C(C2CC2)C2CC2)(C(=O)O)CC1)c1ccc(F)cc1 [Example 18, 4-[2-[N-(dicyclopropylmethyl)anilino]-2-oxo-ethyl]-1-[(4-fluorophenyl)-methyl-carbamoyl]piperidine-4-carboxylic acid] |  | 2.57 nM |  |  | 9.59 nM | 0.0298 nM | 0.224 nM | 0.476 nM |
